From ChEMBL document CHEMBL1201862, “PubChem BioAssay data set” (2004)
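Interpolation was linear, between the two tested concentrations surrounding the appropriate level; five concentrations were tested over 48 hours in 96-well plates. GI50: concentration for 50% inhibition of growth.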 Calls of active or inactive are those of the source. Cut-off read from the data, not from the text of the source: active = GI50 up to about 1.1 µM and inactive = higher.

Key:
Test in all cases: NCI anticancer screen, dose series, 48 h
RPMI-8226 = test system: RPMI-8226
SF-295 = test system: SF-295
HCC 2998 = test system: HCC 2998
NCI/ADR-RES = test system: NCI/ADR-RES
HOP-62 = test system: HOP-62
MOLT-4 = test system: MOLT-4
MDA-N = test system: MDA-N
SF-268 = test system: SF-268
U-251 = test system: U-251
786-0 = test system: 786-0
CCRF-CEM = test system: CCRF-CEM
MDA-MB-231 = test system: MDA-MB-231
HT-29 = test system: HT-29
A549 = test system: A549
SNB-19 = test system: SNB-19
UACC-257 = test system: UACC-257
LOX IMVI = test system: LOX IMVI
SK-OV-3 = test system: SK-OV-3
T47D = test system: T47D
TK-10 = test system: TK-10
PC-3 = test system: PC-3
SN12C = test system: SN12C
OVCAR-4 = test system: OVCAR-4
K562 = test system: K562
HL-60 = test system: HL-60
NCI-H522 = test system: NCI-H522
SR = test system: SR
BT-549 = test system: BT-549
EKVX = test system: EKVX
IGROV-1 = test system: IGROV-1
MDA-MB-435 = test system: MDA-MB-435
HCT-15 = test system: HCT-15
OVCAR-8 = test system: OVCAR-8
SK-MEL-5 = test system: SK-MEL-5
Hs-578T = test system: Hs-578T
UACC-62 = test system: UACC-62
Malme-3M = test system: Malme-3M
SF-539 = test system: SF-539
DU-145 = test system: DU-145
M14 = test system: M14
COLO 205 = test system: COLO 205
OVCAR-3 = test system: OVCAR-3
A498 = test system: A498
ACHN = test system: ACHN
NCI-H226 = test system: NCI-H226
MCF7 = test system: MCF7
UO-31 = test system: UO-31
NCI-H460 = test system: NCI-H460
HCT-116 = test system: HCT-116
RXF 393 = test system: RXF 393
SK-MEL-28 = test system: SK-MEL-28
NCI-H23 = test system: NCI-H23
SK-MEL-2 = test system: SK-MEL-2
HOP-92 = test system: HOP-92
SW-620 = test system: SW-620
SNB-75 = test system: SNB-75
KM12 = test system: KM12
OVCAR-5 = test system: OVCAR-5

Measured: GI50

O=C1C=CC2(O[C@H](C3CCCCC3)[C@@H](C3CCCCC3)O2)C(SC(=O)c2ccccc2)C1 (stereo partly drawn)
active: RPMI-8226 968 nM | MOLT-4 1.09 µM | T47D 975 nM | NCI-H522 1.04 µM | SR 925 nM | OVCAR-3 891 nM | NCI-H226 820 nM | HCT-116 918 nM | RXF 393 1.01 µM | SK-MEL-28 347 nM
inactive: SF-295 7.14 µM | HCC 2998 1.25 µM | NCI/ADR-RES 1.43 µM | HOP-62 3.23 µM | MDA-N 1.78 µM | SF-268 2.62 µM | U-251 1.91 µM | 786-0 1.68 µM | CCRF-CEM 1.26 µM | MDA-MB-231 1.39 µM | HT-29 1.36 µM | A549 6.07 µM | SNB-19 1.44 µM | UACC-257 7.05 µM | LOX IMVI 1.41 µM | SK-OV-3 12.9 µM | TK-10 2.26 µM | PC-3 2.23 µM | SN12C 1.82 µM | OVCAR-4 1.25 µM | K562 1.4 µM | HL-60 1.79 µM | BT-549 3.1 µM | EKVX 6.1 µM | IGROV-1 1.75 µM | MDA-MB-435 1.62 µM | OVCAR-8 1.73 µM | SK-MEL-5 1.77 µM | Hs-578T 1.92 µM | UACC-62 2.48 µM | Malme-3M 3.66 µM | SF-539 2.88 µM | DU-145 2.44 µM | M14 2.14 µM | COLO 205 5.87 µM | A498 8.41 µM | ACHN 1.94 µM | MCF7 1.48 µM | UO-31 1.55 µM | NCI-H460 7.8 µM | NCI-H23 2.47 µM | SK-MEL-2 4.21 µM | HOP-92 8.39 µM | SW-620 1.91 µM | SNB-75 7.24 µM | KM12 6.98 µM | OVCAR-5 1.88 µM
3.21 µM: HCT-15
